For one molecule, Kd results are on record in patent US20250368648A1, “MULTI-CYCLIC IRAK AND FLT3 INHIBITING COMPOUNDS AND USES THEREOF” (CHILDREN'S HOSPITAL MEDICAL CENTER, priority 2022, published 2025).

Broadly, the Kd is the constant that tells how readily two partners part at equilibrium.

The target in assay [1] is T1, FLT3 D835V (Homo sapiens, UniProt P36888, D835V).
T1 construct: purchased DiscoverX (KINOMEscan); host or cells: E. coli (T7 phage) or HEK-293
T1 sequence (P36888 27-993 D835V): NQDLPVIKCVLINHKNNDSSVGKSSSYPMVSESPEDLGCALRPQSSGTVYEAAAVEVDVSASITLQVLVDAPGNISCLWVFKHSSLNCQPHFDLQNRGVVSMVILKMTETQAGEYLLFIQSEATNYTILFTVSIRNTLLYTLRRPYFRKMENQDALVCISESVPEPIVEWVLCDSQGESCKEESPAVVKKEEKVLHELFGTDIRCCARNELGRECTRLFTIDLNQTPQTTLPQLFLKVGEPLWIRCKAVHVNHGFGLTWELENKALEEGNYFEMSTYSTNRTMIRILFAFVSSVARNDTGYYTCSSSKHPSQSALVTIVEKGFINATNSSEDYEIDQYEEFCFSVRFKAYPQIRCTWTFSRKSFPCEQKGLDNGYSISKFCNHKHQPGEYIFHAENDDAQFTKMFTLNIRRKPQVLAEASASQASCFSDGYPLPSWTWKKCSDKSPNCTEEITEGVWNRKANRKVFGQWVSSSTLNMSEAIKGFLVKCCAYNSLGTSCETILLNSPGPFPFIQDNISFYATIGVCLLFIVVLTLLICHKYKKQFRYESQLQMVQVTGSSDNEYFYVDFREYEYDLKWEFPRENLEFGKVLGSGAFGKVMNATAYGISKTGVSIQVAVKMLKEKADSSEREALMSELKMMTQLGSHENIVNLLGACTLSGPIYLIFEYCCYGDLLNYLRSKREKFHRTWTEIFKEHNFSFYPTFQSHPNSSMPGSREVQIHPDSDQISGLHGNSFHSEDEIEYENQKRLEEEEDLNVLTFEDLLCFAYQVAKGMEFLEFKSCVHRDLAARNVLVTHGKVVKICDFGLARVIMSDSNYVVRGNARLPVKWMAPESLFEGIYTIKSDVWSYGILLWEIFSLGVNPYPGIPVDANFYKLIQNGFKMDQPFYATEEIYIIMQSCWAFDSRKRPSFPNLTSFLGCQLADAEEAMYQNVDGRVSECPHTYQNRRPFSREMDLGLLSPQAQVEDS
Nature of the assay: DiscoverX KINOMEscan competition binding, FLT3 D835V. Conditions: no ATP. An excerpt:
(§1) Kinase binding data were obtained for various exemplary compounds prepared according to Examples 2-15 using the DiscoverX KINOMEscan® active site-directed competition binding site-directed assay protocol described below. […] As a result, the data report thermodynamic interaction affinities (Kd values), rather than IC50 values that are dependent on ATP concentrations. The assay uses a DNA-tagged version of the protein kinase, and an immobilized ligand bound to a solid support. Compounds that directly or indirectly prevent kinase binding to the immobilized ligand reduce the amount of kinase captured on the solid support, which is detected using an ultra-sensitive qPCR method. Affinity constants reported from the assay have been reported to be independent of the immobilized ligand used that is coupled to the solid support (See supplemental information in Fabian, M. A. et. al., (2005) Nat. […] Wodicka, L. […] Biol. 17, 1241-1249.) Kinase-tagged T7 phage strains were prepared in an E. coli host derived from the BL21 strain. E. coli were grown to log-phase and infected with T7 phage and incubated with shaking at 32° C. until lysis. […] Kds were determined using an 11-point 3-fold compound dilution series with three DMSO control points. […] The kinase concentration in the eluates was measured by qPCR. Binding constants (Kds) were calculated with a standard dose-response curve using the Hill equation. […]

In assay [2] the target is T2, FLT3 R834Q (Homo sapiens, UniProt P36888, R834Q).
T2 construct: purchased DiscoverX (KINOMEscan); host or cells: E. coli (T7 phage) or HEK-293
T2 sequence (P36888 27-993 R834Q): T1 sequence (P36888 27-993 D835V) with R808Q, V809D
Nature of the assay: DiscoverX KINOMEscan competition binding, FLT3 R834Q. Conditions: no ATP.
From the text: as §1

SMILES strings stand for the structures. Where a chain is given by its changes, count along the chain named.

Consider `COc1cc2ncc(-c3nc(N[C@H]4CNCC[C@@H]4F)c(F)cc3F)n2nc1C1CCC1` [Compound 15a, 6-(6-cyclobutyl-7-methoxyimidazo[1,2-b]pyridazin-3-yl)-3,5-difluoro-N-((3S,4S)-4-fluoropiperidin-3-yl)pyridin-2-amine], for which the Kd in assay [1] was less than 0.17 nM; in assay [2], 0.81 nM.
